Experimental findings from ChEMBL document CHEMBL1146311, “Carbonic anhydrase activators: L-Adrenaline plugs the active site entrance of isozyme II, activating better isoforms I, IV, VA, VII, and XIV” (Bioorg Med Chem Lett, 2007) are described below.

Series [1] relates to CNC[C@H](O)c1ccc(O)c(O)c1. The note with it: Homo sapiens; 10 uM.
Description: (§1) Activity of human recombinant CA1 at 10 uM by stopped-flow technique
For series [2], the system named is NCCc1c[nH]cn1. As to conditions: Homo sapiens; 10 uM.
Description: as §1
For series [3], the target named is Carbonic anhydrase 1 (Homo sapiens) (UniProt P00915).
Chain of Carbonic anhydrase 1 (Homo sapiens) (P00915 2-261 limits assumed): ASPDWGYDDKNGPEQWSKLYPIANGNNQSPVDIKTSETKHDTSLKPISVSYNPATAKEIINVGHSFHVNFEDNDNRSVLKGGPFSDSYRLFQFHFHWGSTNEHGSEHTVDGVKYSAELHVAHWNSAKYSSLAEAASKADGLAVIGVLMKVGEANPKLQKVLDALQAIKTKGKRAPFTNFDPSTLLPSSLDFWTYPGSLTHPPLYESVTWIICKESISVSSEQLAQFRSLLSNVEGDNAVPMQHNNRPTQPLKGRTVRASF
Description: Activation of human recombinant CA1 by CO2 hydration method
Series [4] deals with Carbonic anhydrase 2 (Homo sapiens) (UniProt P00918).
Description: Activation of human recombinant CA2 by CO2 hydration method
The target in series [5] is Carbonic anhydrase 4 (Homo sapiens) (UniProt P22748).
Chain of Carbonic anhydrase 4 (Homo sapiens) (P22748 whole entry): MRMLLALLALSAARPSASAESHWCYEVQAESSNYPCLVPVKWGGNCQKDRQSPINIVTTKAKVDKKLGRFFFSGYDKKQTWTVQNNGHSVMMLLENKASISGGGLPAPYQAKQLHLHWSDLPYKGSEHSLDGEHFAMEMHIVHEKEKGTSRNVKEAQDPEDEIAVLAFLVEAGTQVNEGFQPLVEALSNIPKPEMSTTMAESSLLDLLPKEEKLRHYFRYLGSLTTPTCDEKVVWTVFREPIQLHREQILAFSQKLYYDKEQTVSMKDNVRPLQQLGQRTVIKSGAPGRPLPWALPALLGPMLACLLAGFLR
Description: Activation of human recombinant CA4 by CO2 hydration method
For series [6], the target named is Carbonic anhydrase 5A, mitochondrial (Homo sapiens) (UniProt P35218).
Chain of Carbonic anhydrase 5A, mitochondrial (Homo sapiens) (P35218 whole entry): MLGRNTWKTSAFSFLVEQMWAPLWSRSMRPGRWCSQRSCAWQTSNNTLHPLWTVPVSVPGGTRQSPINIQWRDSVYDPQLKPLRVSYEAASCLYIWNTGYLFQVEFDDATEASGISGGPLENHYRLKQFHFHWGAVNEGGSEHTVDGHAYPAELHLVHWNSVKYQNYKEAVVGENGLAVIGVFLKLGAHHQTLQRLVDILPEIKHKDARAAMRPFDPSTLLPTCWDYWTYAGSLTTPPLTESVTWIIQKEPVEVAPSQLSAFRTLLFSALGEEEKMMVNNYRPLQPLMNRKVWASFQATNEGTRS
Description: Activation of human recombinant CA5A by CO2 hydration method
The target of series [7] is Carbonic anhydrase 7 (Homo sapiens) (UniProt P43166).
Chain of Carbonic anhydrase 7 (Homo sapiens) (P43166 whole entry): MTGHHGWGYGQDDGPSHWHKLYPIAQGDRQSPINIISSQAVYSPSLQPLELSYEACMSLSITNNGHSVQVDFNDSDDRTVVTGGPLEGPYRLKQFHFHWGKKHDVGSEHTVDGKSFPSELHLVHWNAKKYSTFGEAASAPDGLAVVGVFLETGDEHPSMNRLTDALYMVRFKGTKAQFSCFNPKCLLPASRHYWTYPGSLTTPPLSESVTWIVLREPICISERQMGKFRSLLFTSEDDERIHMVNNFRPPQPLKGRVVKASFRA
Description: Activation of human recombinant CA7 by CO2 hydration method
For series [8], the target named is Carbonic anhydrase 14 (Homo sapiens) (UniProt Q9ULX7).
Chain of Carbonic anhydrase 14 (Homo sapiens) (Q9ULX7 whole entry): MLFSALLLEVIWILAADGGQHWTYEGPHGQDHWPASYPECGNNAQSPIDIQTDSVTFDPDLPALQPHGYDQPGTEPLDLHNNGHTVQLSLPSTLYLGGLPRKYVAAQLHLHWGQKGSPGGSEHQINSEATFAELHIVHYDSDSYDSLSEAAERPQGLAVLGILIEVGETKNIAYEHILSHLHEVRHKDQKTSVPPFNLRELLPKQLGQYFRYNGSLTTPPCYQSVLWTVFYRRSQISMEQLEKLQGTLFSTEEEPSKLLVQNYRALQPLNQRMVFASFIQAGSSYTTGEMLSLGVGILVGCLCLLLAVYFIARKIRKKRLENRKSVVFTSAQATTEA
Description: Activation of human recombinant CA14 by CO2 hydration method
Series [9] relates to CNC[C@H](O)c1ccc(O)c(O)c1. The note with it: Homo sapiens; 10 uM. This is another data set of the same source.
Description: (§2) Activity of human recombinant CA2 at 10 uM by stopped-flow technique
For series [10], the system named is NCCc1c[nH]cn1. As to conditions: Homo sapiens; 10 uM. The source holds these as a separate data set.
Description: as §2

By kcat is commonly meant the number of substrate molecules converted per active site and unit of time at saturation.

Chain of Carbonic anhydrase 1 (Homo sapiens), P00915 (P00915 whole entry): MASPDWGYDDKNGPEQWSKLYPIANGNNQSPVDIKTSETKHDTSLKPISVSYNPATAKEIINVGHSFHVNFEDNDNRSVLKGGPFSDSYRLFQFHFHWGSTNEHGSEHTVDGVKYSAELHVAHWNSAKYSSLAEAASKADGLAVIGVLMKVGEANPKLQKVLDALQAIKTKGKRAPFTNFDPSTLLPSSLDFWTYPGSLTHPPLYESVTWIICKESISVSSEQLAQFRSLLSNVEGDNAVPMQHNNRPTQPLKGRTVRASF

As for “Carbonic anhydrase 1 (Homo sapiens), P00915”, the kcat in series [1] was 10.4 10^5/s; in the series with NCCc1c[nH]cn1 [2], 12.7 10^5/s.
On to `NCCc1c[nH]cn1`, for which the Ka in [3] was found to be 0.05 µM; in [4], 74 µM; in series [5], 31 µM; in series [6], 2.5 µM; in series [7], 1.3 µM; in series [8], 1.9 µM.
Consider “Carbonic anhydrase 2 (Homo sapiens) (from UniProt P00918)”, for which the results for the turnover number (kcat) (in [9]; in the series on NCCc1c[nH]cn1 [10]) were 1.7 10^6/s and 2 10^6/s, respectively.
As to `CNC[C@H](O)c1ccc(O)c(O)c1`, the Ka in series [3] amounted to 0.09 µM; in series [4] it was 96 µM; in series [5] it was 45 µM; in [6] it was 63 µM; in series [7], 60 µM; in [8], 36 µM.
